Paper PMC5936891, “A focused library synthesis and cytotoxicity of quinones derived from the natural product bolinaquinone” (Royal Society Open Science, 2018)
Entries after “also recorded” stand apart in the source; their conditions may differ.

What was measured:
[1] = system: MCF10A (normal breast cell line); assay: MTT in vitro growth inhibition assay, MCF10A; type: cell-based; details: Homo sapiens, MCF-10A, 25 µM of drug, 72 h, read-out: Percentage of Cell Growth Inhibition MCF10A
Excerpt: (§1) With the desired bolinaquinone analogues 12–43 in hand, we examined their cytotoxicity against a panel of 11 tumour cell lines: HT29 (colon carcinoma), U87 and SJ-G2 (glioblastoma), MCF-7 (breast carcinoma), A2780 (ovarian carcinoma), H460 (lung carcinoma), A431 (skin carcinoma), Du145 (prostate carcinoma), BE2-C (neuroblastoma), MIA (pancreatic carcinoma), SMA (spontaneous murine astrocytoma) and a normal breast cell line (MCF10A). The inclusion of the MCF-10A cell line allowed a determination of a crude measure of relative toxicity while noting that the ultimate arbiter of toxicity requires in vivo evaluation. All analogues were initially screened at a 25 µM drug concentration.
(§2) Stock solutions were prepared as follows and stored at −20°C: drugs were stored as 40 mM solutions in DMSO. All cell lines were cultured in a humidified atmosphere 5% CO2 at 37°C. The cancer cell lines were maintained in Dulbecco's modified Eagle's medium (DMEM) (Trace Biosciences, Australia) supplemented with 10% fetal bovine serum, 10 mM sodium bicarbonate, penicillin (100 IU ml^−1), streptomycin (100 µg ml^−1) and glutamine (4 mM). The non-cancer MCF10A cell line was cultured in DMEM:F12 (1 : 1) cell culture media, 5% heat-inactivated horse serum, supplemented with penicillin (50 IU ml^−1), streptomycin (50 µg ml^−1), 20 mM Hepes, L-glutamine (2 mM), epidermal growth factor (20 ng ml^−1), hydrocortisone (500 ng ml^−1), cholera toxin (100 ng ml^−1) and insulin (10 ug ml^−1).
(§3) Cells in logarithmic growth were transferred to 96-well plates. Cytotoxicity was determined by plating cells in duplicate in 100 µl medium at a density of 2500–4000 cells per well. On day 0 (24 h after plating), when the cells were in logarithmic growth, 100 μl of medium with or without the test agent was added to each well. After 72 h, drug exposure growth inhibitory effects were evaluated using the MTT (3-[4,5-dimethylthiazol-2-yl]-2,5-diphenyl-tetrazolium bromide) assay and the absorbance read at 540 nm. Percentage growth inhibition was determined at a fixed drug concentration of 25 µM. A value of 100% is indicative of complete cell growth inhibition. Those analogues showing appreciable percentage growth inhibition underwent further dose–response analysis allowing for the calculation of a GI50 value. This value is the drug concentration at which cell growth is 50% inhibited based on the difference between the optical density values on day 0 and those at the end of drug exposure.

[2] = system: A2780 (ovarian carcinoma); assay: MTT in vitro growth inhibition assay, A2780; type: cell-based; details: Homo sapiens; for inhibition at 25 µM: 25 µM of drug, 72 h, read-out: Percentage of Cell Growth Inhibition A2780
Excerpt: as §1, §2, §3

[3] = system: H460 (lung carcinoma); assay: MTT in vitro growth inhibition assay, H460; type: cell-based; details: Homo sapiens; for inhibition at 25 µM: NCI-H460, 25 µM of drug, 72 h, read-out: Percentage of Cell Growth Inhibition H460
Excerpt: as §1, §2, §3

[4] = system: SMA (spontaneous murine astrocytoma); assay: MTT in vitro growth inhibition assay, SMA; type: cell-based; details: Mus musculus; for inhibition at 25 µM: 25 µM of drug, 72 h, read-out: Percentage of Cell Growth Inhibition SMA
Excerpt: as §1, §2, §3

[5] = system: U87 (glioblastoma); assay: MTT in vitro growth inhibition assay, U87; type: cell-based; details: for inhibition at 25 µM: 25 µM of drug, 72 h, read-out: Percentage of Cell Growth Inhibition U87
Excerpt: as §1, §2, §3

[6] = system: SJ-G2 (glioblastoma); assay: MTT in vitro growth inhibition assay, SJ-G2; type: cell-based; details: for inhibition at 25 µM: 25 µM of drug, 72 h, read-out: Percentage of Cell Growth Inhibition SJ-G2
Excerpt: as §1, §2, §3

[7] = system: MCF-7 (breast carcinoma); assay: MTT in vitro growth inhibition assay, MCF-7; type: cell-based; details: Homo sapiens; for inhibition at 25 µM: MCF7, 25 µM of drug, 72 h, read-out: Percentage of Cell Growth Inhibition MCF-7
Excerpt: as §1, §2, §3

[8] = system: BE2-C (neuroblastoma); assay: MTT in vitro growth inhibition assay, BE2-C; type: cell-based; details: Homo sapiens, BE(2)-C, 72 h; for inhibition at 25 µM: 25 µM of drug, read-out: Percentage of Cell Growth Inhibition BE2-C
Excerpt: as §1, §2, §3

[9] = system: Du145 (prostate carcinoma); assay: MTT in vitro growth inhibition assay, Du145; type: cell-based; details: Homo sapiens, DU-145, 25 µM of drug, 72 h, read-out: Percentage of Cell Growth Inhibition Du145
Excerpt: as §1, §2, §3

[10] = system: MIA (pancreatic carcinoma); assay: MTT in vitro growth inhibition assay, MIA; type: cell-based; details: for inhibition at 25 µM: 25 µM of drug, 72 h, read-out: Percentage of Cell Growth Inhibition MIA
Excerpt: as §1, §2, §3

[11] = system: panel of 11 cancer cell lines and one normal cell line; assay: Cytotoxicity across the whole cell line panel (MTT); type: cell-based; details: for activity at the initial screening concentration (to proceed to GI50 determination): 25 µM single dose
Excerpt: as §1, §2, §3

[12] = system: A431 (skin carcinoma); assay: MTT in vitro growth inhibition assay, A431; type: cell-based; details: Homo sapiens; for inhibition at 25 µM: A-431, 25 µM of drug, 72 h, read-out: Percentage of Cell Growth Inhibition A431
Excerpt: as §1, §2, §3

[13] = system: HT29 (colon carcinoma); assay: MTT in vitro growth inhibition assay, HT29; type: cell-based; details: Homo sapiens; for inhibition at 25 µM: HT-29, 25 µM of drug, 72 h, read-out: Percentage of Cell Growth Inhibition HT29
Excerpt: as §1, §2, §3

| Compound | inhibition at 25 µM [1] [%] | inhibition at 25 µM [2] [%] | inhibition at 25 µM [3] [%] | inhibition at 25 µM [4] [%] | inhibition at 25 µM [5] [%] | inhibition at 25 µM [6] [%] | inhibition at 25 µM [7] [%] | inhibition at 25 µM [8] [%] | inhibition at 25 µM [9] [%] | inhibition at 25 µM [10] [%] | activity at the initial screening concentration (to proceed to GI50 determination) [11] | melting point [°C] | inhibition at 25 µM [12] [%] | inhibition at 25 µM [13] [%] | further results |
| --- | --- | --- | --- | --- | --- | --- | --- | --- | --- | --- | --- | --- | --- | --- | --- |
| COC1=CC(=O)C(OC)=C(c2cccc(-c3ccccc3)c2)C1=O [compound 28, 3-Biphenyl-3-yl-2,5-dimethoxycyclohexa-2,5-diene-1,4-dione] | < 10 | 52 ± 17 | 12 ± 5 | 36 ± 8 | 12 ± 9 | 18 ± 3 | 27 ± 1 | 59 ± 23 | 12 ± 1 | < 10 | not sufficiently active; also recorded: did not proceed to GI50 determination | 172 to 174 | < 10 | 16 ± 2 | cytotoxicity spectrum across the panel [11]: broad-spectrum active |
| CCCCc1ccc(C2=C(OC)C(=O)C=C(OC)C2=O)cc1 [compound 15, 3-(4-Butylphenyl)-2,5-dimethoxycyclohexa-2,5-diene-1,4-dione] | < 10 | 39 ± 14 | < 10 | 25 ± 10 | 10 ± 7 | 12 ± 6 | 19 ± 7 | 41 ± 18 | < 10 | < 10 | not sufficiently active | – | < 10 | < 10 | – |
| CCCNC1=CC(=O)C(NCCC)=C(c2ccc(C)cc2)C1=O [compound 38, 2,5-Bis(propylamino)3-p-tolylcyclohexa-2,5-diene-1,4-dione] | 69 ± 3 | 63 ± 4 | 51 ± 2 | 73 ± 1 | 67 ± 5 | 50 ± 2 | 57 ± 3 | 28 ± 12 | 56 ± 2 | 67 ± 3 | – | 166 to 168 | 81 ± 0.3 | 59 ± 4 | – |
| COC1=CC(=O)C(OC)=C(c2ccccc2)C1=O [compound 12, 2,5-Dimethoxy-3-phenylcyclohexa-2,5-diene-1,4-dione] | < 10 | 75 ± 7 | < 10 | 49 ± 8 | 12 ± 2 | 27 ± 6 | 40 ± 3 | > 100 | < 10 | 31 ± 5 | – | 122 to 124 | 10 ± 3 | 24 ± 1 | GI50 ([2]; 72 h drug exposure): 18 ± 0.7 µM; GI50 ([3]; NCI-H460, 72 h drug exposure): > 50 µM; GI50 ([4]; 72 h drug exposure): 29 ± 3.2 µM; GI50 ([5]; 72 h drug exposure): 47 ± 2.2 µM; GI50 ([6]; 72 h drug exposure): 27 ± 0.9 µM; GI50 ([7]; MCF7, 72 h drug exposure): 22 ± 3.4 µM; GI50 ([8]; 72 h drug exposure): 10 ± 1.1 µM; GI50 ([10]; 72 h drug exposure): 29 ± 1.5 µM; GI50 ([12]; A-431, 72 h, 72 h drug exposure): 40 ± 4.5 µM; GI50 ([13]; HT-29, 72 h drug exposure): 42 ± 6.2 µM |
